US7632813B2, “Bone densifying agent characterized by use of cathepsin K inhibitor with PTH” (Ono Pharmaceutical Co., Ltd., priority 2004, dated 2009)
Where no end group is shown, it is not given here.

What was measured:
Assay type in all cases: in vivo
[1] = tested on: ovariectomized rat osteoporosis model (OVX); test: Experiment 2 (administration schedule 2): BMD of tibia by pQCT in OVX rats; conditions: Experiment 2, FIG. 5; for BMD of the tibia on the 83rd day, each alone: 83 days from next day of OVX, sole administration
[2] = tested on: ovariectomized rat osteoporosis model (OVX); test: Experiment 1 (administration schedule 1): BMD of left proximal tibia by pQCT in OVX rats; conditions: for BMD of the left leg tibia on the 83rd day, each alone / BMD of the left leg tibia on the 83rd day, in combination with PTH: Experiment 1, FIG. 3; for BMD of the left leg tibia on the 83rd day, each alone: sole administration, OVX-induced BMD loss; for BMD of the left leg tibia (4 mm slice from proximal end) at intermediate autopsy: Experiment 1, FIG. 1, oral sole administration from next day of OVX, intermediate autopsy 56 days after OVX; for BMD of the left leg tibia on the 83rd day, in combination with PTH: bone resorption inhibitor 83 days orally plus PTH 10 μg/kg s.c. from 57th day, versus PTH alone
From the text: (§1) For the purpose of clarifying the characteristics, the effect of a cathepsin K inhibitor (a bone resorption inhibitor) in combination with a type of PTH (a bone formation stimulator) was examined using an ovariectomized rat osteoporosis model (abbreviated as OVX hereafter). The effect of a bisphosphonate (BP) in combination with a type of PTH was also examined. The effects were compared with each other.
(§2) In the following examples, PTH (1-34) is abbreviated as PTH unless specified. 2) Test Method Experiment 1 (Administration Schedule 1): Administration in Combination with PTH After Repeated Administration of Bone Resorption Inhibitor
(§3) Female retired rats (F344/NSlc) were used. At the age of 6 months, 87 rats were assigned to OVX (ovariectomy) and the other 10 rats were assigned to sham operation.
(§4) Another 15 rats were assigned to OVX and 5 rats were assigned to sham operation, in order to these groups to an autopsy in the course.
(§5) To the group the compound was administered; a bone resorption inhibitor was administered orally from the next day of OVX over a period of 83 days.
[…] Other groups to which the compound was administered, a bone resorption inhibitor was administered orally, and PTH or vehicle (saline containing 0.1% BSA) was administered subcutaneously, 55 days after OVX. […] The interval between the first and the second administration was 5-7 hours.
(§6) PTH was administered by subcutaneous injection from the back three times a week by a dose of 10 μg/kg from the 57th day after OVX. The drugs were administed according to the grouping of table 1.
(§7) In the group in which the compound was administered, on the 83rd day after OVX, BMD of tibia, lumbar BMD, concentration of urinary C-terminal telopeptide of type I collagen (CTX) and serum osteocalcin (OC) were measured. In the autopsy groups, concentration of urinary CTX and serum OC were measured on samples from the 55th day.
The BMD was determined by measurement device of peripheral BMD (pQCT: peripheral Quantitative Computed Tomography, XCT-Research SA+Stratec Medizintechnik GmbH, version 5.40) with voxel size 0.12 mm. The BMD of the left proximal tibia (at a point 4 mm from the proximal end) was measured.
(§8) In order to compare the sham group and the OVX control group, t-test (EXSAS (version 6.1), ARM SYSTEX CO., LTD.); in order to compare the effectiveness of the test compounds, Tukey test (EXSAS (version 6.1), ARM SYSTEX CO., LTD.), were used respectively. Less than 5% was assumed to be a significant difference.

[3] = tested on: ovariectomized rat osteoporosis model (OVX); test: Experiment 1: serum osteocalcin (OC) concentration, bone formation marker, in OVX rats; conditions: for serum OC concentration (bone formation marker) at intermediate autopsy: Experiment 1, FIG. 2, repeated oral administration for 55 days; for serum OC concentration on the 83rd day, in combination with PTH: combination with PTH compared with PTH sole administration
From the text: as §1, §2, §3, §4, §5
On 55 days after OVX, the autopsy was done in autopsy group. Other groups to which the compound was administered, a bone resorption inhibitor was administered orally, and PTH or vehicle (saline containing 0.1% BSA) was administered subcutaneously, 55 days after OVX. […] The interval between the first and the second administration was 5-7 hours.
as §6, §7
Fifty-five days after administration, in the autopsy, collected serum was used to measure the serum OC concentration with a kit for OC measurement (BIOTRAK; Osteocalcin, rat ELISA system).
as §8

[4] = tested on: ovariectomized rat osteoporosis model (OVX); test: Experiment 2: urinary CTX concentration in OVX rats; conditions: Experiment 2, FIG. 6
[5] = tested on: ovariectomized rat osteoporosis model (OVX); test: Experiment 1: urinary CTX concentration, bone resorption marker, in OVX rats; conditions: Experiment 1, FIG. 4; for urinary CTX concentration on the 83rd day, combination administration with PTH: in combination with PTH
From the text: For the purpose of clarifying the characteristics, the effect of a cathepsin K inhibitor (a bone resorption inhibitor) in combination with a type of PTH (a bone formation stimulator) was examined using an ovariectomized rat osteoporosis model (abbreviated as OVX hereafter). The effect of a bisphosphonate (BP) in combination with a type of PTH was also examined. The effects were compared with each other. • (1) a solution of the compound (I): […] In the following examples, PTH (1-34) is abbreviated as PTH unless specified. 2) Test Method Experiment 1 (Administration Schedule 1): Administration in Combination with PTH After Repeated Administration of Bone Resorption Inhibitor Female retired rats ([…] used. At the age of 6 months, 87 rats were assigned to OVX (ovariectomy) and the other 10 rats were assigned to sham operation. To the group the compound was administered; a bone resorption inhibitor was administered orally from the next day of OVX over a period of 83 days. […] On 55 days after OVX, the autopsy was done in autopsy group. Other groups to which the compound was administered, a bone resorption inhibitor was administered orally, and PTH or vehicle (saline containing 0.1% BSA) was administered subcutaneously, 55 days after OVX. […] The interval between the first and the second administration was 5-7 hours. PTH was administered by subcutaneous injection from the back three times a week by a dose of 10 μg/kg from the 57th day after OVX. The drugs were administed according to the grouping of table 1. In the group in which the compound was administered, on the 83rd day after OVX, BMD of tibia, lumbar BMD, concentration of urinary C-terminal telopeptide of type I collagen (CTX) and serum osteocalcin (OC) were measured. In the autopsy groups, concentration of urinary CTX and serum OC were measured on samples from the 55th day. Urine was collected before the day of an autopsy, and urinary CTX was measured with a kit for rat CTX measurement (RatLaps ELISA; nordicbioscience). In measurement of absorbance, microplate reader (SPECTRA MAX 250, Japan Molecular Devices Inc.) was used. […] In order to compare the sham group and the OVX control group, […] CO., LTD.); in order to compare the effectiveness of the test compounds, Tukey test ([…] CO., LTD.), were used respectively. Less than 5% was assumed to be a significant difference.

Compound: human PTH (1-34) amide (SVSEIQLMHNLGKHLNSMERVEWLRKKLQDVHNF-NH2; UniProt P01270 32-65, looked up, fragment) [partial peptide of PTH, bone formation stimulator (APC Lot.N05129A1)]
- BMD of the tibia on the 83rd day, each alone [1]: inhibited the reduction of BMD of tibia caused by OVX
- BMD of the left leg tibia on the 83rd day, each alone [2]: suppressed the OVX-induced BMD loss in the tibia
- serum OC concentration on the 83rd day, PTH sole administration ([3]; Experiment 1, FIG. 4, PTH 10 μg/kg s.c.): increased

Compound: CN1CCS/C1=N\NC(=O)C(=O)C(NC(=O)C1CCCCCC1)C1CCOCC1.Cl (stereo not drawn) [compound (I), N-{3-[(2Z)-2-(3-methyl-1,3-thiazolidin-2-ylidene)hydrazino]-2,3-dioxo-1-tetrahydro-2H-pyran-4-ylpropyl}cycloheptanecarboxamide hydrochloride]
- BMD of the tibia on the 83rd day, each alone [1]: inhibited the reduction of BMD of tibia caused by OVX
- effect on increase of BMD of tibia in combination with PTH ([1]; 83 days in combination with PTH 3 μg/kg s.c.): greater than that of ALN in combination with PTH
- urinary CTX concentration (bone resorption marker) on the 83rd day, combination administration ([4]; in combination with PTH): has an inhibitory effect on urinary CTX concentration
- urinary CTX concentration (bone resorption marker) on the 83rd day, sole administration ([4]; sole administration group): has an inhibitory effect on urinary CTX concentration
- BMD of the left leg tibia (4 mm slice from proximal end) at intermediate autopsy [2]: showed an increasing effect of BMD in the tibia
- BMD of the left leg tibia on the 83rd day, in combination with PTH [2]: showed an additive effect in BMD of tibia
- BMD of the left leg tibia on the 83rd day, each alone [2]: suppressed the OVX-induced BMD loss in the tibia
- urinary CTX concentration on the 83rd day, combination administration with PTH [5]: showed an inhibitory effect
- urinary CTX concentration on the 83rd day, sole administration [5]: showed an inhibitory effect
- serum OC concentration (bone formation marker) at intermediate autopsy [3]: not decreased
- serum OC concentration on the 83rd day, in combination with PTH ([3]; Experiment 1, FIG. 4): did not decrease the serum OC concentration significantly

Compound: NCCCC(O)(P(=O)(O)O)P(=O)(O)O [ALN, Alendronate sodium hydrate]
- BMD of the tibia on the 83rd day, each alone [1]: inhibited the reduction of BMD of tibia caused by OVX
- inhibitory effect on urinary CTX compared with compound (I) [4]: weaker than that of compound (I)
- BMD of the left leg tibia (4 mm slice from proximal end) at intermediate autopsy [2]: showed an increasing effect of BMD in the tibia
- BMD of the left leg tibia on the 83rd day, in combination with PTH [2]: did not show any additive effect
- BMD of the left leg tibia on the 83rd day, each alone [2]: suppressed the OVX-induced BMD loss in the tibia
- urinary CTX concentration on the 83rd day, combination administration with PTH [5]: showed a urinary CTX inhibitory effect
- urinary CTX concentration on the 83rd day, sole administration [5]: showed a urinary CTX inhibitory effect
- urinary CTX inhibitory effect compared with compound (I) ([5]; sole and combination administration with PTH): weaker than that of compound (I)
- serum OC concentration (bone formation marker) at intermediate autopsy [3]: decreased
- serum OC concentration on the 83rd day, in combination with PTH ([3]; Experiment 1, FIG. 4): significantly decreased serum OC concentration
